The NIST ThermoML archive (doi:10.1016/j.fluid.2007.09.021)
± gives the expanded uncertainty stated by the source. Blank lines part the entries; values can stand above or below the compound they belong to.

Assay: activity coefficient (dimensionless); of the first substance listed, at infinite dilution; xn = mol fraction of the nth substance listed
Settings: Liquid, x1 = 0
[1] = 398.15 K, Differential ebulliometry
[2] = 409.15 K, Differential ebulliometry
[3] = 343.15 K, Differential ebulliometry
[4] = 368.15 K, Differential ebulliometry
[5] = 378.15 K, Differential ebulliometry
[6] = 388.15 K, Differential ebulliometry

SMILES: CCCCO [butan-1-ol] + CCc1ccccc1
activity coefficient (303.15 K, Chromatography): 11.8 ± 0.6
activity coefficient (313.15 K, Chromatography): 9.49 ± 0.5
activity coefficient (323.15 K, Chromatography): 7.63 ± 0.39
activity coefficient [1]: 2.55 ± 0.26
activity coefficient [2]: 2.24 ± 0.14

SMILES: CCO [ethanol] + CCc1ccccc1
activity coefficient (293.15 K, Chromatography): 20.1 ± 0.8
activity coefficient (303.15 K, Chromatography): 16.2 ± 0.7
activity coefficient (313.15 K, Chromatography): 13.7 ± 0.7
activity coefficient (323.15 K, Chromatography): 11.2 ± 0.4

SMILES: CCCCCCO [hexan-1-ol] + CCc1ccccc1
activity coefficient [4]: 3.25 ± 0.06
activity coefficient [5]: 2.95 ± 0.18
activity coefficient [6]: 2.62 ± 0.06
activity coefficient [1]: 2.43 ± 0.1
activity coefficient [2]: 2.11 ± 0.04

SMILES: CO [methanol] + CCc1ccccc1
activity coefficient (293.15 K, Chromatography): 26.2 ± 1.3
activity coefficient (303.15 K, Chromatography): 21.4 ± 1.1
activity coefficient (313.15 K, Chromatography): 18 ± 1
activity coefficient (323.15 K, Chromatography): 15 ± 0.8

SMILES: CCCCCO [pentan-1-ol] + CCc1ccccc1
activity coefficient [4]: 3.62 ± 0.08
activity coefficient [5]: 3.19 ± 0.06
activity coefficient [6]: 2.89 ± 0.06
activity coefficient [1]: 2.57 ± 0.06
activity coefficient [2]: 2.29 ± 0.06

SMILES: CCCO [propan-1-ol] + CCc1ccccc1
activity coefficient (293.15 K, Chromatography): 15.8 ± 0.8
activity coefficient (303.15 K, Chromatography): 12.9 ± 0.7
activity coefficient (313.15 K, Chromatography): 10.3 ± 0.7
activity coefficient (323.15 K, Chromatography): 8.7 ± 0.44

Next, values leading:

activity coefficient (323.15 K, Chromatography): 2.77 ± 0.11
SMILES: CCc1ccccc1 [ethylbenzene] + CCCCCCO

activity coefficient (323.15 K, Chromatography): 3.37 ± 0.12
SMILES: CCc1ccccc1 [ethylbenzene] + CCCCCO

activity coefficient (323.15 K, Chromatography): 3.84 ± 0.15
SMILES: CCc1ccccc1 [ethylbenzene] + CCCCO

activity coefficient [3]: 4.48 ± 0.08
activity coefficient (353.15 K, Differential ebulliometry): 4.21 ± 0.08
activity coefficient (363.15 K, Differential ebulliometry): 3.98 ± 0.08
activity coefficient (370.15 K, Differential ebulliometry): 3.8 ± 0.08
SMILES: CCc1ccccc1 [ethylbenzene] + CCCO

activity coefficient (323.15 K, Differential ebulliometry): 6.86 ± 0.14
activity coefficient (333.15 K, Differential ebulliometry): 6.53 ± 0.14
activity coefficient [3]: 6.19 ± 0.12
activity coefficient (351.15 K, Differential ebulliometry): 5.9 ± 0.12
SMILES: CCc1ccccc1 [ethylbenzene] + CCO

activity coefficient (308.15 K, Differential ebulliometry): 12.8 ± 0.2
activity coefficient (318.15 K, Differential ebulliometry): 12.2 ± 0.2
activity coefficient (328.15 K, Differential ebulliometry): 11.8 ± 0.2
activity coefficient (337.15 K, Differential ebulliometry): 11.4 ± 0.2
SMILES: CCc1ccccc1 [ethylbenzene] + CO
